Assay results reported in ChEMBL document CHEMBL5331063, “Recent advances of β-catenin small molecule inhibitors for cancer therapy: Current development and future perspectives” (Eur J Med Chem, 2022).
Blank lines part the entries; values can stand above or below the compound they belong to.

Key:
[1] = biological target: T1, TCF4-CTNNB1 complex (Homo sapiens, UniProt P15884+P35222); experiment: Inhibition of beta-Catenin (301 to 670 residues)/TCF4 protein-protein interaction in human HCT-116 cells incubated for 20 hrs by TOPFLASH luciferase reporter assay; assay type: cell-based
T1 sequence (P35222 whole entry): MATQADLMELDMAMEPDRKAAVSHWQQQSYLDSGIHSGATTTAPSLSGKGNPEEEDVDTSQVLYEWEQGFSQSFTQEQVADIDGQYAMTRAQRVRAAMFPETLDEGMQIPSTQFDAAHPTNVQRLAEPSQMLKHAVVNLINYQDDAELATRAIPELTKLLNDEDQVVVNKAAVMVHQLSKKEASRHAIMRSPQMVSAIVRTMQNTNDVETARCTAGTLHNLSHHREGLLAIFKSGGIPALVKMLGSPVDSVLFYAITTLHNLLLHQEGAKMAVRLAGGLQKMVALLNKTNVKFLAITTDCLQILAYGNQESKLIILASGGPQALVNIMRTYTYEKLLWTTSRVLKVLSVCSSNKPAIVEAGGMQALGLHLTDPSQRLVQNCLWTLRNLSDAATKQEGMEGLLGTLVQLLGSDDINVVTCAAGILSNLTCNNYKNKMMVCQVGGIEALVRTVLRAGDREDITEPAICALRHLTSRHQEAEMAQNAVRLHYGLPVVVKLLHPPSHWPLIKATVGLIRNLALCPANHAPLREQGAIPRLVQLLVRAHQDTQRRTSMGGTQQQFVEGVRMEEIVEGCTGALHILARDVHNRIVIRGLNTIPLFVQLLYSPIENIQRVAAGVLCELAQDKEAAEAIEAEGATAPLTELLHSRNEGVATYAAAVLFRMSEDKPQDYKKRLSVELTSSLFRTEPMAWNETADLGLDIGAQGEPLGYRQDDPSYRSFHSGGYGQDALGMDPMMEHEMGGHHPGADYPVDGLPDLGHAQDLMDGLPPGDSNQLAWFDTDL
T1 sequence (P15884 whole entry): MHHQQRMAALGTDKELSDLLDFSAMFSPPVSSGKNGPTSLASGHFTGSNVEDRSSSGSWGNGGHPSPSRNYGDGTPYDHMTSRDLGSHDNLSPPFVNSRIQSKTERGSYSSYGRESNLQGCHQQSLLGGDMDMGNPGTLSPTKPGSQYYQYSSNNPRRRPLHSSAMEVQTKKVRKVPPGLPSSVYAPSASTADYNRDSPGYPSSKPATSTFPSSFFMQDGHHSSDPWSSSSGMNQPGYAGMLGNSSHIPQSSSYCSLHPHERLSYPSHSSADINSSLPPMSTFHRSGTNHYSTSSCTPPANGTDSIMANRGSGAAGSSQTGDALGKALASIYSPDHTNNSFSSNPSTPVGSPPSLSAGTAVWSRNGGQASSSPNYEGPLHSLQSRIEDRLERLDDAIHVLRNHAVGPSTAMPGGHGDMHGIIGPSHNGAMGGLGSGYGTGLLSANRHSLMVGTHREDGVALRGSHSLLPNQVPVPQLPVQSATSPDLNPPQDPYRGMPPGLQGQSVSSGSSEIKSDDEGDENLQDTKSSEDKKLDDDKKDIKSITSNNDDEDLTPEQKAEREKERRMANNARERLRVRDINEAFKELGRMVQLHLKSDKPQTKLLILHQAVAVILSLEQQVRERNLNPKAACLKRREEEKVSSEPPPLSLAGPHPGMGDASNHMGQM

[2] = test system: HCT-116; experiment: Antitumor activity against human HCT-116 cells xenografted with mouse assessed as reduction in tumor size at 20 mg/kg,ip administrated 3 times per week for 11 days; assay type: functional; parameters: scale not given: the % may be the effect or the level left; conditions: time 11 day
[3] = test system: HCT-116; experiment: Antitumor activity against human HCT-116 cells xenografted with mouse assessed as reduction in tumor size at 100 mg/kg,ip administrated 3 times per week for 11 days; assay type: functional; parameters: scale not given: the % may be the effect or the level left; conditions: time 11 day
[4] = test system: NCM460; experiment: Cytotoxicity against human NCM460 cells incubated for 48 hrs by MTT assay; assay type: toxicity, cell-based; conditions: ncm460, 48 h
[5] = test system: HCT-116; experiment: Cytotoxicity against human HCT-116 cells incubated for 48 hrs by MTT assay; assay type: functional
[6] = test system: SW480; experiment: Cytotoxicity against human SW480 cells incubated for 48 hrs by MTT assay; assay type: functional
[7] = biological target: T2, TCF4-CTNNB1 complex (Homo sapiens, UniProt P35222+Q9NQB0); experiment: Inhibition of beta-Catenin/GST-tagged TCF4 protein-protein interaction in human HCT-116 cells incubated for 24 hrs by immunoprecipitation assay; assay type: cell-based
T2 sequence (P35222 whole entry): T1 sequence (P35222 whole entry)
T2 sequence (P15884 whole entry): T1 sequence (P15884 whole entry)

[8] = biological target: T2, TCF4-CTNNB1 complex; experiment: Inhibition of beta-Catenin/TCF4 (unknown origin) protein-protein interaction; assay type: protein-complex assay
[9] = biological target: T1, TCF4-CTNNB1 complex; experiment: Inhibition of wild type beta-Catenin/TCF4 protein-protein interaction in human Hep3B cells incubated for 24 hrs by TOPFLASH reporter assay; assay type: cell-based
[10] = Inhibition of beta-Catenin S33Y mutant/TCF4 protein-protein interaction in human SNU-398 cells incubated for 24 hrs by TOPFLASH reporter assay; assay type: cell-based

IC50 [1]: 0.53 µM
Compound: COC(=O)c1cccc(NS(=O)(=O)c2ccc(OC)cc2)c1

Compound: O=c1ccc2cc(O)c(O)cc2o1 [ESCULETIN]
Activity [2]: 44% | Activity [3]: 64%

Compound: C=C1C(=O)C23[C@H](O)C[C@@H]4C(C)(C)[C@@H](OC(C)=O)CC[C@@]4(C)[C@@H]2[C@@H]2O[C@@H]2C1[C@H]3O (stereo partly specified)
Activity [4]: 10% | Activity [5]: >95% | Activity [6]: >95%

Compound: COc1c(CC(C)OC(=O)Oc2ccc(O)cc2)c2c3c(CC(C)OC(=O)c4ccccc4)c(OC)c(=O)c4c(O)cc(OC)c(c5c(OC)cc(O)c(c1=O)c52)c43 (stereo unspecified)
IC50 [7]: 10 µM

IC50 [1]: 0.583 µM
Compound: COC(=O)c1cccc(NS(=O)(=O)c2ccc(C)cc2)c1

Compound: C[C@H]1[C@H]2N(C(=O)CN(C)N2C(=O)NCc2ccccc2)[C@@H](Cc2ccc(OP(=O)(O)O)cc2)C(=O)N1Cc1cccc2cccnc12
IC50 [8]: 0.15 µM

IC50 [9]: 25 µM | IC50 [10]: 32 µM
Compound: O=C(Nc1cnn(Cc2ccc(F)cc2)c1)C1CC1c1ccccc1 (stereo unspecified)
